The source of these data is article PMC10252203, “Tyrosinase Inhibitory Peptides from Enzyme Hydrolyzed Royal Jelly: Production, Separation, Identification and Docking Analysis” (Foods, 2023).

In test [1] the target is T1, TYR (Agaricus bisporus, UniProt C7FF04).
T1 construct: purchased Shanghai Yuanye Bio-Technology Co., Ltd. (Shanghai, China)
On the set-up: method as in 2 sources, one per row (each row's own in cited_ref): ref [48] = [48]; PMID 34313364; doi:10.1002/ardp.202100204; 48. Krobthong S. Yingchutrakul Y. Samutrtai P. Choowongkomon K. The C-terminally shortened analogs of a hexapeptide derived from Lingzhi hydrolysate with enhanced tyrosinase-inhibitory activity Arch. ||| ref [16],[17] = [16]; PMID 33459057; doi:10.1080/10408398.2021.1871724; 16. Peng Z.Y. Wang G.C. Zeng Q.H. Li Y.F. Liu H.Q. Wang J.J. Zhao Y. A systematic review of synthetic tyrosinase inhibitors and their structure-activity relationship Crit. Rev. Food Sci. Nutr. 2021 62 || [17]; PMID 35603815; doi:10.1111/1750-3841.16160; 17. Xue W. Liu X. Zhao W. Yu Z. Identification and molecular mechanism of novel tyrosinase inhibitory peptides from collagen J. Food Sci. 2022 87 2744 2756 10.1111/1750-3841.16160 35603815. As to conditions: ref [16],[17]; cited from earlier work. An excerpt: Bioactive peptides are functional peptide fragments produced during the hydrolysis, cleavage, or maturation of proteins, and their relative molecular mass is usually less than 6000 Da.

The conditions of test [2]: ref [47]; cited from earlier work. From the text: Guo isolated and purified 29 antioxidant peptides from RJ and verified their antioxidant activity.
Test [3] concerns the target T1, TYR. Nature of the test: TYR inhibitory activity (L-DOPA oxidation). The format is biochemical. Here is the method:
Determination and calculation methods of TYR inhibitory activity were referred to the detection method of Ji and modified slightly. Briefly, the TYR was dissolved to prepare solutions using 0.05 M phosphate buffer saline (pH 6.8). Then, the mixed 40 μL of ERJ, 2 U/mL 100 μL of TYR, and 1.0 mmol/L 100 μL of L-DOPA were added in a 96-well plate, and the absorbance at 475 nm was measured immediately after 10 s and recorded as A1. The reaction system was incubated for 190 s at 25 °C and measured again and recorded as A2. We repeated the above steps by replacing the ERJ with buffer and measuring the absorbance value after 10 s, recorded as A3, and the absorbance value after 190 s as A4. The inhibition rate of ERJ on TYR was calculated according to the following equation:(1) Inhibition percentage (%)=(1−ΔA/ΔB) × 100% where, ΔA = A2 − A1, ΔB = A4 − A3.

For test [4], the system named is fungus, yeast, and bacteria. The conditions noted are these: ref [45],[46]; cited from earlier work.

“Also recorded” adds a separate entry of the source. Ends that are not written are not given here.

T1 sequence (C7FF04 2-392): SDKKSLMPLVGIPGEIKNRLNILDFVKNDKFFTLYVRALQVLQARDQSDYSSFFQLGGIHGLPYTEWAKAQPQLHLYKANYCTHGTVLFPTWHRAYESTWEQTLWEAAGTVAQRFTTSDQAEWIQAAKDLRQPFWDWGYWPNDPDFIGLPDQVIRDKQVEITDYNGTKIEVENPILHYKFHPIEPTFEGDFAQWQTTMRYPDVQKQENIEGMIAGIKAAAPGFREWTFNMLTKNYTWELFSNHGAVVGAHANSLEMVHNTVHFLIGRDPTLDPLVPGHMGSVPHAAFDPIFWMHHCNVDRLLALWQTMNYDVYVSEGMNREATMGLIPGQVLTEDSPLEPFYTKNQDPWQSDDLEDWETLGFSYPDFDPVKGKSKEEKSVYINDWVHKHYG

For `OC[C@H]1O[C@@H](Oc2ccc(O)cc2)[C@H](O)[C@@H](O)[C@@H]1O` [arbutin], the “inhibitory effect on TYR activity (in words), literature” value in test [1] was “strong inhibitory effects”.
In the case of `Oc1ccc(O)cc1` [hydroquinone], in test [1], the “inhibitory effect on TYR activity (in words), literature” value was “strong inhibitory effects”.
Take Arg-Tyr: in test [2], the “free radical scavenging ability” value was “strong free radical scavenging ability”.
With IIPFIF [IIPFIF], in test [3], the “TYR inhibitory activity (in words)” value is “maximum activity; also recorded: highest of the three peptides”.
Still for that read-out and setting: then ILFTLL [ILFTLL], with “lowest activity; also recorded: lowest of the three peptides”.
For Tyr-Tyr, in test [2], the “free radical scavenging ability” value is on record as “strong free radical scavenging ability”.

B1: MRJP-2: major royal jelly protein (protein, UniProt O77061 18-452, looked up)
Major royal jelly protein 2: AIVRENSPRNLEKSLNVIHEWKYFDYDFGSEERRQAAIQSGEYDHTKNYPFDVDQWRDKTFVTILRYDGVPSTLNVISGKTGKGGRLLKPYPDWSFAEFKDCSKIVSAFKIAIDKFDRLWVLDSGLVNRTVPVCAPKLHVFDLKTSNHLKQIEIPHDIAVNATTGKGGLVSLAVQAIDLANTLVYMADHKGDALIVYQNADDSFHRLTSNTFDYDPRYAKMTIDGESFTLKNGICGMALSPVTNNLYYSPLASHGLYYVNTAPFMKSQFGENNVQYQGSEDILNTQSLAKAVSKNGVLFVGLVGNSAVGCWNEHQSLQRQNLEMVAQNDRTLQMIAGMKIKEELPHFVGSNKPVKDEYMLVLSNRMQKIVNDDFNFDDVNFRILGANVKELIRNTHCVNNNQNDNIQNTNNQNDNNQKNNKKNANNQKNNNQNDN
For the molecule B1, the antibacterial properties result in test [4] is recorded as “have antibacterial properties”.

B2: MRJP-4: major royal jelly protein (protein, UniProt Q17061 16-464, looked up)
Major royal jelly protein 4: QNIRGGVVRENSSGKNLTNTLNVIHKWKYLDYDFDNDERRQAAIQSGEYDRTKNYPLDVDQWHNKTFLAVIRYNGVPSSLNVVSDKTGNGGRLLQPYPDWSFAKYEDCSGIVSAHKIAIDEYERLWVLDSGLVNNTQPMCSPKLFAFDLNTSQLLKQVEIPHDVATTGKGELVSLTVQAMDSTNTMVYMVDNKNTLIIYQNADDSFHRLSSHTLNHNSDKMSDQQENLTLKEVDNKVYGMALSPVTHNLYYNSPSSENLYYVNTESLMKSENQGNDVQYERVQDVFDSQLTVKAVSKNGVLLFGLANNTLSCWNEHQSLDRQNIDVVARNEDTLQMVVSMKIKQNVPQSGRVNNTQRNEYLLALSDRNQNVLNNDLNLEHVNFQILGANVNDLIRNSRCANFDNQDNNHYNHNHNQARHSSKSDNQNNNQHNDQAHHSSKSNNRHNNND
As for B2, in test [4], the antibacterial properties entry was “have antibacterial properties”.
